Measured values taken from article PMC3539763 (ACS medicinal chemistry letters, 2010).
“Also recorded” adds a separate entry of the source. Values belong to the compound of their own block, whether it stands above or below them.

Assays:
[1] = target: rat mGlu5 (Rattus norvegicus, UniProt P31424); assay: calcium fluorescence; type: cell-based; conditions: for less potent than 10e: potentiation EC50 relative to 10e
[2] = transcellular permeability; conditions: >20 × 10^-6 cm/sec is preferred for CNS targets
[3] = test system: open field locomotor activity; assay: open field locomotor activity, compound dosed alone; type: in vivo, rat; conditions: dosed alone at 56.6 mg/kg
[4] = kinetic aqueous solubility screen; conditions: aqueous medium
[5] = target: mGlu5 (Rattus norvegicus, UniProt P31424); assay: radioligand binding with [3H]3-methoxy-PEPy; conditions: at highest concentration, 30 μM; partial and incomplete; data not shown
Sequence of mGlu5 (P31424 21-1203): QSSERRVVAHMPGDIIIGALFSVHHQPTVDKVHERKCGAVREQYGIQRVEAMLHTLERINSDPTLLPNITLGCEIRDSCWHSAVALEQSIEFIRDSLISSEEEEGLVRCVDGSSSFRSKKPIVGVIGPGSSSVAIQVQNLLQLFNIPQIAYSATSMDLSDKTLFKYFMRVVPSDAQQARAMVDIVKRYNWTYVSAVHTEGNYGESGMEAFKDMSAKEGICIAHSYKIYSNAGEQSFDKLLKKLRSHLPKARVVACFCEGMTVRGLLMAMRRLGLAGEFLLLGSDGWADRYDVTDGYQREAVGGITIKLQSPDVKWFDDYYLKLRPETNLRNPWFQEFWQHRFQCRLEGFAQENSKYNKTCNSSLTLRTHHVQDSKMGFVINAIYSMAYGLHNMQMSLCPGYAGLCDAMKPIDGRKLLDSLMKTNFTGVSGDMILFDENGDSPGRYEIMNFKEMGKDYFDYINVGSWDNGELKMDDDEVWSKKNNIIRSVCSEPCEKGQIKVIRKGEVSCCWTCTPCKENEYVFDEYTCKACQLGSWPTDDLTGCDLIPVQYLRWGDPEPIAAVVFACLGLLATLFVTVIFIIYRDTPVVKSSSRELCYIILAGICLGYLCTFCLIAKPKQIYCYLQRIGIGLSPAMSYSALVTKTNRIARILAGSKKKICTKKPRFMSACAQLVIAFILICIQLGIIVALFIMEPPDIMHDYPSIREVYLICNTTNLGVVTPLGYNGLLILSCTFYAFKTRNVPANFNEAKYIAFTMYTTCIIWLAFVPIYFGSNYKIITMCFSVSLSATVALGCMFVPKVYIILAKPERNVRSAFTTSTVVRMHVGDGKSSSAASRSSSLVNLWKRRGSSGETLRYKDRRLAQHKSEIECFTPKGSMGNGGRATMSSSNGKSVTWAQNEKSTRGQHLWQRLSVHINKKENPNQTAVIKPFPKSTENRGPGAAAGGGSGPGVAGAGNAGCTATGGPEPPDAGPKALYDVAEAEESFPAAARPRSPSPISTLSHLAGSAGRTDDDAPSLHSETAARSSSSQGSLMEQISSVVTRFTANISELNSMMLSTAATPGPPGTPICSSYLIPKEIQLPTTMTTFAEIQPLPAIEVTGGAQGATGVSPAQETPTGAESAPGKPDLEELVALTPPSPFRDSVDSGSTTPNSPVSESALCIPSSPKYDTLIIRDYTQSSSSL

[6] = stability in rat liver microsomes; conditions: after 60 min
[7] = stability in human liver microsomes; conditions: after 60 min

Sequence of rat mGlu5 (P31424 21-1203): as above

less potent than 10e [1]: > 5 fold
Structure (SMILES): COc1ccccc1N1CCN(C(=O)COCc2ccccc2)CC1 [10c]

EC50 [1]: > 10 µM
Structure (SMILES): O=C(COCc1ccccc1)N1CCN(c2ncccn2)CC1 [10h]

less potent than 10e [1]: > 5 fold
Structure (SMILES): COC(=O)c1ccccc1N1CCN(C(=O)COCc2ccccc2)CC1 [10f]

transcellular permeability [2]: acceptable | solubility kinetic [4]: > 30 µg/mL | displacement of [3H]3-methoxy-PEPy radioligand [5]: ca. 50% | parent compound remaining [6]: less than 5% | concentration at which compound alone slightly activates mGlu5 ([1]; CRC in absence of glutamate): above 30 μM | potency enhancement vs. lead 8 ([1]; potentiator of the glutamate EC20): > 3 fold | parent compound remaining [7]: less than 5%
Structure (SMILES): N#Cc1ccccc1N1CCN(C(=O)COCc2ccccc2)CC1 [10e]
sedation / abnormal behavior in open field locomotor activity [3]: no sedation or abnormal behavior; also recorded: without causing sedation | mGlu5 agonism of compound alone ([1]; compound alone, no glutamate, up to 10 μM): no inherent mGlu5 agonism; also recorded: no effect
